Reference: the supplement of paper PMC10883282

What was measured:
Assay in all cases: relative viability vs DMSO control (72 h) (fraction); higher = more viable cells
SYO-1 = test system: SYO-1
Summary of the method: (§1)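 ATPLite readings, expressed as percent growth and averaged over up to triplicate wells, provided relative viability. Before reading, sarcoma cell lines seeded in 384-well plates to reach 80–90% confluence received 2.5 µl of serially diluted compound after 24 h, from source plates of 10 mM to 0.0002 mM. Plates were held 72 h at 37 °C, 5% CO2, with 0.1% DMSO as vehicle and a 5 µM positive control. The data were rescaled to 1 for full and 0 for none.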

A204 = test system: A204
Summary of the method: as §1

SW982 = test system: SW982
Summary of the method: as §1

HS729 = test system: HS729
Summary of the method: as §1

KHOS-240S = test system: KHOS-240S
Summary of the method: as §1

CCN1CCN(c2ccc(Nc3cc(N(C)C(=O)Nc4c(Cl)c(OC)cc(OC)c4Cl)ncn3)cc2)CC1 [Infigratinib]
relative viability
Conditions | A204 | HS729 | KHOS-240S | SW982 | SYO-1
85 pM | 1.08 | 1.01 | 1.058 | 1.01 | 1.02
0.000254 µM | 1.08 | 0.934 | 1.11 | 1.07 | 0.973
0.00076 µM | 1.08 | 0.942 | 1.08 | 1.02 | 0.975
0.00229 µM | 1.05 | 0.913 | 1.06 | 1.05 | 0.901
0.00686 µM | 0.964 | 0.866 | 1.06 | 1.05 | 0.827
0.02058 µM | 0.825 | 0.788 | 0.986 | 1.05 | 0.655
0.0617 µM | 0.676 | 0.69 | 0.926 | 1.07 | 0.626
0.1852 µM | 0.569 | 0.635 | 0.932 | 1.061 | 0.63
0.5556 µM | 0.559 | 0.604 | 0.907 | 0.98 | 0.596
1.6667 µM | 0.527 | 0.526 | 0.874 | 0.78 | 0.623
5 µM | 0.408 | 0.525 | 0.835 | 0.732 | 0.606

CS(=O)(=O)CCNCc1ccc(-c2ccc3ncnc(Nc4ccc(OCc5cccc(F)c5)c(Cl)c4)c3c2)o1 [Lapatinib]
relative viability
Conditions | A204 | HS729 | KHOS-240S | SW982 | SYO-1
0.00017 µM | 1.06 | 0.93 | 1.04 | 1.04 | 0.955
0.00051 µM | 1.07 | 0.935 | 1.05 | 1.04 | 0.93
0.00152 µM | 1.06 | 0.873 | 1.07 | 1.06 | 0.958
0.00457 µM | 1.07 | 0.878 | 1.06 | 1.03 | 0.959
0.01372 µM | 1.06 | 0.939 | 1.09 | 1.05 | 0.936
0.04115 µM | 1.08 | 0.921 | 1.09 | 1.06 | 0.949
0.1235 µM | 1.07 | 0.93 | 1.07 | 1.07 | 0.934
0.3704 µM | 1.09 | 0.887 | 1.09 | 1.09 | 0.944
1.111 µM | 1.05 | 0.879 | 1.08 | 1.09 | 0.912
3.333 µM | 0.701 | 0.794 | 0.65 | 0.968 | 0.637
10 µM | 0.0212 | 0.134 | 0.345 | 0.0107 | 0.165

O=C1CCc2c(Oc3ccc4c(c3)[C@@H]3[C@H](O4)[C@H]3c3nc4cc(C(F)(F)F)ccc4[nH]3)ccnc2N1 [Lifirafenib]
relative viability
Conditions | A204 | HS729 | KHOS-240S | SW982 | SYO-1
0.00017 µM | 1.1 | 0.947 | 1.068 | 1.04 | 0.947
0.00051 µM | 1.12 | 0.921 | 1.07 | 1.03 | 0.941
0.00152 µM | 1.12 | 0.926 | 1.06 | 1.055 | 0.9369
0.00457 µM | 1.104 | 0.937 | 1.08 | 1.05 | 0.947
0.01372 µM | 1.1 | 0.886 | 1.06 | 1.02 | 0.937
0.04115 µM | 1.11 | 0.907 | 1.06 | 1.02 | 0.91
0.1235 µM | 1.1 | 0.871 | 1.06 | 1.05 | 0.905
0.3704 µM | 0.781 | 0.852 | 1.03 | 1.03 | 0.823
1.111 µM | 0.49 | 0.8769 | 0.967 | 0.897 | 0.666
3.333 µM | 0.38 | 0.851 | 0.792 | 0.757 | 0.555
10 µM | 0.317 | 0.817 | 0.547 | 0.556 | 0.437

CNC(=O)c1cccc2cc(Oc3ccnc4cc(OCC5(N)CC5)c(OC)cc34)ccc12 [Lucitanib]
relative viability
Conditions | A204 | HS729 | KHOS-240S | SW982 | SYO-1
0.00017 µM | 1.04 | 1.08 | 1.1 | 1.03 | 1.03
0.00051 µM | 1.07 | 1.07 | 1.05 | 1.06 | 1.04
0.00152 µM | 1.04 | 1.07 | 1.1 | 1.06 | 1.01
0.00457 µM | 1.01 | 1.04 | 1.06 | 1.049 | 0.984
0.01372 µM | 0.859 | 1.01 | 1.07 | 1.03 | 0.919
0.04115 µM | 0.584 | 0.983 | 1.05 | 1.05 | 0.825
0.1235 µM | 0.421 | 0.915 | 1.02 | 1.03 | 0.688
0.3704 µM | 0.391 | 0.866 | 0.946 | 1.04 | 0.561
1.111 µM | 0.265 | 0.692 | 0.817 | 1.03 | 0.504
3.333 µM | 0.172 | 0.618 | 0.771 | 0.972 | 0.49
10 µM | 0.153 | 0.568 | 0.632 | 0.608 | 0.385

CCOc1cc2ncc(C#N)c(Nc3ccc(OCc4ccccn4)c(Cl)c3)c2cc1NC(=O)/C=C/CN(C)C [Neratinib]
relative viability
Conditions | A204 | HS729 | KHOS-240S | SW982 | SYO-1
0.00017 µM | 1.09 | 0.944 | 1.03 | 1.06 | 0.957
0.00051 µM | 1.09 | 0.922 | 1.06 | 1.07 | 0.955
0.00152 µM | 1.08 | 0.955 | 1.06 | 1.05 | 0.938
0.00457 µM | 1.097 | 0.905 | 1.06 | 1.04 | 0.932
0.01372 µM | 1.03 | 0.925 | 1.05 | 1.05 | 0.931
0.04115 µM | 1.06 | 0.861 | 1.03 | 1 | 0.917
0.1235 µM | 1.01 | 0.771 | 1 | 0.87 | 0.875
0.3704 µM | 0.665 | 0.672 | 0.896 | 0.483 | 0.716
1.111 µM | 0.395 | 0.639 | 0.741 | 0.379 | 0.581
3.333 µM | 0.338 | 0.645 | 0.618 | 0.215 | 0.431
10 µM | -0.00133 | 0.00633 | 0.338 | 0.0234 | -0.0166
